Source: patent publication US9657009B2, “Heteroaryl substituted pyridyl compounds useful as kinase modulators” (BRISTOL-MYERS SQUIBB COMPANY, priority 2012, dated 2017)
Where two headings read alike, the source gives them in different places.

How the values were obtained:
IRAK4 = IRAK4 (Homo sapiens (Human), UniProt Q9NWZ3); experiment: IRAK4 Inhibition Assay; type: biochemical
Procedure: IRAK4 Inhibition Assay The assays were performed in U-bottom 384-well plates. […] The reaction was initiated by the combination of IRAK4 with substrates and test compounds. The reaction mixture was incubated at room temperature for 60 min. and terminated by adding 45 μL of 35 mM EDTA to each sample.

[1] = tested on: TLR2 induced IL-6 in peripheral blood mononuclear cells (PBMCs); experiment: PBMC TLR2 Induced IL-6 Assay; type: cell-based; conditions: lipoteichoic acid 10 μg/ml, IL-6 by ELISA; for IC50: values without asterisk, read-out: Cell IC50
Procedure: PBMC TLR2 Induced IL-6 Assay Peripheral blood mononuclear cells (PBMCs) were isolated from human blood containing the anti-coagulant EDTA (2.5 mM) by centrifugation over a FICOLL® gradient. […] At the end of the culture, plates were centrifuged at 1800 rpm for 10 minutes to pellet the cells. Supernatants were harvested and analyzed for IL-6 levels by ELISA (BD Biosciences, San Jose, Calif.).

[2] = ATP 500 μM; IRAK4 0.6 nM; 60 min at room temperature; read-out: IRAK4 IC50
[3] = human PBMCs, 5 hours, values marked * are EC50, read-out: Cell EC50 (*EC50)

IRAK4, sequence (Q9NWZ3 whole entry, species assumed): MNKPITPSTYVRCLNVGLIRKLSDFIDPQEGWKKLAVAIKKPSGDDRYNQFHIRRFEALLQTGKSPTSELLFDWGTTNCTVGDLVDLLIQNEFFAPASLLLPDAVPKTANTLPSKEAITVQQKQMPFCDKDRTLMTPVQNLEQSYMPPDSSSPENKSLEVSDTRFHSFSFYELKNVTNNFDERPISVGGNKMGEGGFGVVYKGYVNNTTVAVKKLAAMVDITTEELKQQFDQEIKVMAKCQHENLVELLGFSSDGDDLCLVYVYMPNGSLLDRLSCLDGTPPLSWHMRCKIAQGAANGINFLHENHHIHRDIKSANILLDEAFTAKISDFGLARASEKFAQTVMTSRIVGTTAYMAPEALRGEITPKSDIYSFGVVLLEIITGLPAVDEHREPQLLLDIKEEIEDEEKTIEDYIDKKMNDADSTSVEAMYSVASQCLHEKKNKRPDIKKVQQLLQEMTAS

SMILES | IC50 (IRAK4; [2]) [nM] | EC50 [1, 3] [nM] | other results
CC(C)(O)[C@H](F)CNC(=O)c1cnc(Nc2ncc(C#N)cn2)cc1N[C@H]1CCC[C@@H]1F [Example 54] | 5.9 | – | IC50 ([1]; human PBMCs, 5 hours): 126 nM
CC(C)(O)[C@H](F)CNC(=O)c1cnc(Nc2ncc(C#N)cn2)cc1N[C@H]1CCC[C@@H]1F [Example 55] | 5 | – | IC50 ([1]; human PBMCs, 5 hours): 27 nM
CC(C)(O)[C@H](F)CNC(=O)c1cnc(Nc2ncc(C#N)cc2Cl)cc1NC1CCC(F)C1 (some centres unmarked) [Example 57] | 1.8 | 68 | –
CC(C)(O)[C@H](F)CNC(=O)c1cnc(Nc2ncc(C#N)cc2Cl)cc1NC1CCC(F)C1 (some centres unmarked) [Example 62] | 1.7 | 52 | –
CC(C)(O)[C@H](F)CNC(=O)c1cnc(Nc2ncc(C#N)cc2Cl)cc1NC1CCCC1F (some centres unmarked) [Example 70] | 3.2 | 91 | –
CC(C)(O)[C@H](F)CNC(=O)c1cnc(Nc2ncc(C#N)cc2Cl)cc1NC1CCCC1F (some centres unmarked) [Example 71] | 2.8 | 394 | –
CC(C)(O)[C@H](F)CNC(=O)c1cnc(Nc2ncc(C#N)cc2Cl)cc1NC1CCCC1F (some centres unmarked) [Example 73] | 1.5 | 132 | –
CC(C)(O)[C@H](F)CNC(=O)c1cnc(Nc2ncc(C#N)cc2Cl)cc1NC1CCCC1F (some centres unmarked) [Example 74] | 2.7 | 84 | –
CC(C)(O)[C@H](F)CNC(=O)c1cnc(Nc2ncc(C#N)cc2Cl)cc1NC1CCCC1O (some centres unmarked) [Example 78] | 3.7 | 64 | –
CC(C)(O)[C@H](F)CNC(=O)c1cnc(Nc2ncc(C#N)cc2F)cc1NC1CCC(F)C1 (some centres unmarked) [Example 82] | 3 | 105 | –
CC(C)(O)[C@H](F)CNC(=O)c1cnc(Nc2ncc(C#N)cn2)cc1NC1CCC(F)C1 (some centres unmarked) [Example 87] | 3.5 | 197 | –
CC(C)(O)[C@H](F)CNC(=O)c1cnc(Nc2ncc(C#N)cn2)cc1NC1CCC(F)C1 (some centres unmarked) [Example 88] | 5.4 | 266 | –
CC(C)(O)[C@H](F)CNC(=O)c1cnc(Nc2ncc(F)cc2F)cc1NC1CCCOC1 (some centres unmarked) [Example 109] | 13.7 | 350 | –
CC(C)(O)[C@H](F)CNC(=O)c1cnc(Nc2ncc(F)cc2F)cc1NC1CCCOC1 (some centres unmarked) [Example 110] | 15.7 | 705 | –
CC(C)(O)[C@H](F)CNC(=O)c1cnc(Nc2ncc(C#N)cc2F)cc1NC1CCC(F)C1 (some centres unmarked) [Example 115] | 4.5 | 65 | –
CC(C)Nc1cc(Nc2ncc(C#N)cc2F)ncc1C(=O)NC1CCC(C(C)(O)C2CC2)CC1 (centres unmarked) [Example 145] | – | 275 | IC50 (IRAK4; read-out: IRAK4 IC50; ATP 500 μM; IRAK4 0.6 nM; 60 min at room temperature): 4.3 nM

SMILES | IC50 (IRAK4; [2]) [nM] | EC50 [1, 3] [nM] | other results
CC(C)(O)[C@H](F)CNC(=O)c1cnc(Nc2ncc(C#N)cc2Cl)cc1N[C@H]1CC[C@@](C)(O)CC1 [Example 152] | 5.3 | – | –
CC(C)(O)[C@H](F)CNC(=O)c1cnc(Nc2ncc(C#N)cc2Cl)cc1Nc1ccc2ncsc2c1 [Example 153] | 5.6 | – | –
CC(C)(O)[C@H](F)CNC(=O)c1cnc(Nc2ncc(C#N)c(N)n2)cc1NC1CC1 [Example 154] | 5.2 | – | –
CC(C)CNc1cc(Nc2ncc(C#N)cc2Cl)ncc1C(=O)NC[C@@H](F)C(C)(C)O [Example 155] | 4.3 | – | –
CC(C)Nc1cc(Nc2ncc(C#N)cc2Cl)ncc1C(=O)NC[C@H](F)C(C)(C)O [Example 156] | 8.6 | – | –
CC(C)(O)[C@H](F)CNC(=O)c1cnc(Nc2ncc(C#N)cc2Cl)cc1NC1CCC(F)C1 (some centres unmarked) [Example 157] | 2 | – | EC50 ([1]; Homo sapiens, PBMC, 5 h, values marked * are EC50, read-out: Cell EC50 (*EC50)): 71 nM
CC(C)(O)[C@H](F)CNC(=O)c1cnc(Nc2ncc(C#N)cc2Cl)cc1NC1CCC(F)C1 (some centres unmarked) [Example 158] | 2.3 | 102 | –
CC(F)[C@@H](C)Nc1cc(Nc2ncc(C#N)cc2Cl)ncc1C(=O)NC[C@@H](F)C(C)(C)O (some centres unmarked) [Example 159] | – | 130 | –
CC(F)[C@@H](C)Nc1cc(Nc2ncc(C#N)cc2Cl)ncc1C(=O)NC[C@@H](F)C(C)(C)O (some centres unmarked) [Example 160] | – | 846 | –
CS(=O)(=O)[C@H]1CC[C@H](NC(=O)c2cnc(Nc3ncc(C#N)cc3F)cc2Nc2cccc(C(N)=O)c2)CC1 [Example 161] | 15.5 | – | –
CC(C)(O)[C@H](F)CNC(=O)c1cnc(Nc2ncc(C#N)cc2Cl)cc1Nc1cccc(C#N)c1 [Example 162] | 2.6 | – | –
CC(Nc1cc(Nc2ncc(C#N)cn2)ncc1C(=O)NC[C@@H](F)C(C)(C)O)C1CC1 (some centres unmarked) [Example 163] | 10.2 | – | –
CC(C)(O)[C@H](F)CNC(=O)c1cnc(Nc2ncc(C#N)cc2F)cc1NC1COC1 [Example 164] | 8 | – | –
COC(=O)N[C@H]1CC[C@H](NC(=O)c2cnc(Nc3ncc(C#N)cc3F)cc2NC(C)C)CC1 [Example 165] | 11.3 | – | –
CC(C)Nc1cc(Nc2ncc(C#N)cc2F)ncc1C(=O)NC1CCC(O)(c2ccnn2C)CC1 (centres unmarked) [Example 166] | 8.2 | – | –
CC(C)Nc1cc(Nc2ncc(C#N)cc2F)ncc1C(=O)NC1CCC(O)(c2nccs2)CC1 (centres unmarked) [Example 167] | 13 | – | –
